Assay results: article PMC6112376, “Comprehensive Analyses and Prioritization of Tox21 10K Chemicals Affecting Mitochondrial Function by in-Depth Mechanistic Studies” (Environmental Health Perspectives, 2018)
Where two headings read alike, the source gives them in different places.

Legend:
HepG2 cells [1] = conditions: cited from earlier work
HepG2 cells [2] = conditions: HepG2 cells, single number from one experiment; for IC50: read-out: MMP assays IC50 (µM) HepG2
rat primary hepatocytes = assay: MMP assay in rat primary hepatocytes; conditions: for IC50: read-out: MMP assays IC50 (µM) Rat Hepatocytes
[3] = read-out: MMP assays IC50 (µM) qHTS-HepG2
[4] = rat hepatocytes, mean ± SD of three experiments
[5] = read-out: MMP assays IC50 (µM), qHTS-HepG2

| SMILES | MMP assays efficacy (%) qHTS-HepG2 (HepG2 cells [1]) | IC50 (HepG2 cells [1]; [3]) [µM] | MMP assays efficacy (%) HepG2 (HepG2 cells [2]) | IC50 (HepG2 cells [2]) [µM] | MMP assays efficacy (%) Rat Hepatocytes (rat primary hepatocytes; [4]) | IC50 (rat primary hepatocytes; [4]) [µM] | MMP assays IC50 (µM) qHTS-HepG2 (HepG2 cells [1]) | MMP assays IC50 (µM) HepG2 (HepG2 cells [2]) | MMP assays IC50 (µM) Rat Hepatocytes (rat primary hepatocytes; [4]) | IC50 (HepG2 cells [1]; [5]) [µM] | IC50 (rat primary hepatocytes; Rattus norvegicus, Hepatocyte) [µM] |
| --- | --- | --- | --- | --- | --- | --- | --- | --- | --- | --- | --- |
| Cc1cc(N)c2cc(NC(=O)Nc3ccc4nc(C)cc(N)c4c3)ccc2n1.Cl.Cl [Aminoquinuride dihydrochloride] | -99±7% | 25 ± 4.09 | -90% | 27.5 | inactive | – | – | – | – | – | – |
| C=C1CC[C@H](O)C/C1=C/C=C1\CCC[C@]2(C)[C@@H]([C@H](C)CC[C@@H](O)C(C)(C)O)CC[C@@H]12 [24R,25-Dihydroxyvitamin D3] | -111±10% | 13 ± 2.17 | -133% | 15.5 | -46±4% | 17.3 | – | – | – | – | – |
| CCN=C1C=CC(=C(c2ccc(N(CC)CC)cc2)c2ccc(N(CC)CC)cc2)c2ccccc21.Cl [Basic blue 7] | -87±17% | 0.02 ± 0.03 | -78% | 0.05 | -79±39% | 1.53 ± 1.42 | – | – | – | – | – |
| Cc1nc2ccccc2s1 [Compound 2-Methylbenzothiazole] | inactive | – | inactive | – | inactive | – | inactive | inactive | inactive | – | – |
| O=C([O-])c1cc(=O)c2c3nc4ccccc4oc-3cc(=O)c2[nH]1.[Na+] [Pirenoxine sodium] | -54±10% | – | inactive | – | inactive | – | – | inactive | inactive | 21.1 ± 17.8 | – |
| O=Cc1c2ccccc2c(Cl)c2ccccc12 [Compound 10-Chloro-9-anthraldehyde] | -82±26% | 13.9 ± 7.82 | inactive | – | -47±21% | 24.3 ± 28.8 | – | inactive | – | – | – |
| CCCCCCCC[N+](C)(CCCCCCCC)CCCCCCCC.[Cl-] [N-Methyl-N,N-dioctyloctan-1-aminium chloride] | -80±6% | – | -89% | 10 | -100±17% | 19.6 ± 4.89 | – | – | – | 2.73 ± 0.32 | – |
| CCCCCCOc1ccccc1C(N)=O [Exalamide] | -73±11% | 9.81 ± 3 | inactive | – | -59±17% | – | – | inactive | – | – | 29.2 ± 2.37 |
| Oc1ccc(Cl)cc1C1CCCC1 [Compound 4-Chloro-2-cyclopentylphenol] | -99±4% | 5.66 ± 1.93 | -99% | 6.31 | -85±8% | 33.6 ± 29.7 | – | – | – | – | – |
| COC(=O)C1=C(C)NC(C)=C(C(=O)OCC(C)=O)C1c1ccccc1[N+](=O)[O-] (stereo not shown) [Aranidipine] | -56±6% | 12.8 ± 3.68 | inactive | – | inactive | – | – | inactive | inactive | – | – |
| O=C(OCC(COC(=O)c1ccccc1)(COC(=O)c1ccccc1)COC(=O)c1ccccc1)c1ccccc1 | -63±21% | 4.32 ± 8.63 | -52% | 7.08 | inactive | – | – | – | inactive | – | – |
| Cc1cc(C(C)(C)C)c(O)c(C)c1Cn1c(=O)n(Cc2c(C)cc(C(C)(C)C)c(O)c2C)c(=O)n(Cc2c(C)cc(C(C)(C)C)c(O)c2C)c1=O | -98±4% | 12.2 ± 2.84 | -82% | 44.7 | -40±24% | 26.8 ± 25.3 | – | – | – | – | – |
| O=C1c2ccccc2C(=O)C1c1ccc2ccccc2n1 [D&C Yellow 11] | -76±6% | 0.38 ± 0.13 | -75% | 0.44 | inactive | – | – | – | inactive | – | – |
| CCCCCCCCCCCC[N+](C)(C)Cc1ccccc1.[Br-] [Benzyldodecyldimethylammonium bromide] | -97±11% | 11.4 ± 4.34 | – | 17.3 | -44±3% | 18.4 ± 1.5 | – | – | – | – | – |
| O=C(O)Cc1cc(I)c(Oc2cc(I)c(O)c(I)c2)c(I)c1 [3,3',5,5'-Tetraiodothyroacetic acid] | -87±2% | 45.8 ± 2.99 | -87% | 39 | -110±24% | 26.1 ± 2.13 | – | – | – | – | – |
| O=CC=C(c1ccccc1)c1ccccc1 [2-Propenal,3,3-diphenyl-] | -87±29% | 41.2 ± 19.3 | -40% | 56.2 | -78±36% | 17.1 ± 23.9 | – | – | – | – | – |
| Nc1nc(-c2ccc([N+](=O)[O-])cc2)cs1 [2-Amino-4-(p-nitrophenyl)thiazole] | -59±9% | 3.9 ± 1.78 | -54% | 8.91 | -53±16% | 20.6 ± 21.1 | – | – | – | – | – |
| Oc1ccc(Cc2ccccc2O)cc1 [2-(4-Hydroxybenzyl)phenol] | -89±11% | 27.5 ± 1.92 | -87% | 35.5 | inactive | – | – | – | inactive | – | – |
